Measurements: ChEMBL document CHEMBL5442219

Legend:
Details in all cases: Compound concentration 10 µM
[1] = biological target: Sigma non-opioid intracellular receptor 1 (Homo sapiens) (UniProt Q99720)
[2] = biological target: Beta-3 adrenergic receptor (Homo sapiens) (UniProt P13945)
[3] = biological target: 5-hydroxytryptamine receptor 1D (Homo sapiens) (UniProt P28221)
[4] = biological target: Translocator protein (Homo sapiens) (UniProt P30536)
[5] = biological target: Histamine H3 receptor (Homo sapiens) (UniProt Q9Y5N1)
Histamine H3 receptor (Homo sapiens), sequence (Q9Y5N1 whole entry): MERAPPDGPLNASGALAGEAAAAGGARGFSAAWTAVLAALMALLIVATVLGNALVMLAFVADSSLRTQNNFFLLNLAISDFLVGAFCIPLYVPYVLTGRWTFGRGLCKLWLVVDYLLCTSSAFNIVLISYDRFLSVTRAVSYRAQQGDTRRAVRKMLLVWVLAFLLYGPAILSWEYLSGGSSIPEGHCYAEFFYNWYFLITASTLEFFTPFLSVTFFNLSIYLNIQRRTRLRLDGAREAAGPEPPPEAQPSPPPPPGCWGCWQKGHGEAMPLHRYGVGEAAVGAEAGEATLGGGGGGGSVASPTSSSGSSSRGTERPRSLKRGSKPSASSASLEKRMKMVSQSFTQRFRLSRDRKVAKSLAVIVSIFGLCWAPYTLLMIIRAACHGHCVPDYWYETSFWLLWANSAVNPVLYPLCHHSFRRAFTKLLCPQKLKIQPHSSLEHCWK

[6] = biological target: D(1A) dopamine receptor (Homo sapiens) (UniProt P21728)
D(1A) dopamine receptor (Homo sapiens), sequence (P21728 whole entry): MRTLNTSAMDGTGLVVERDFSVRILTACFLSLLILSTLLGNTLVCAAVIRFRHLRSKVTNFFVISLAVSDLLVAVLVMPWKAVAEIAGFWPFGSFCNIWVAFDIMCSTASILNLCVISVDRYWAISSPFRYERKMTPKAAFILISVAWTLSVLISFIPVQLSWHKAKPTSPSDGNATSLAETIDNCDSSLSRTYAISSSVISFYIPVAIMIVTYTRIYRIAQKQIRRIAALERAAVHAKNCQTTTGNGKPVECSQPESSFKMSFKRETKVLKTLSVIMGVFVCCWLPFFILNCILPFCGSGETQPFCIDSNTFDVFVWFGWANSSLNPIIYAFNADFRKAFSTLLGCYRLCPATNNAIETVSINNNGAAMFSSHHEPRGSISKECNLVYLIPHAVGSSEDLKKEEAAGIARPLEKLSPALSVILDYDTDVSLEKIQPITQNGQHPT

[7] = biological target: T1, Alpha-2C adrenergic receptor (Homo sapiens) (UniProt P18825)
T1 sequence (whole entry): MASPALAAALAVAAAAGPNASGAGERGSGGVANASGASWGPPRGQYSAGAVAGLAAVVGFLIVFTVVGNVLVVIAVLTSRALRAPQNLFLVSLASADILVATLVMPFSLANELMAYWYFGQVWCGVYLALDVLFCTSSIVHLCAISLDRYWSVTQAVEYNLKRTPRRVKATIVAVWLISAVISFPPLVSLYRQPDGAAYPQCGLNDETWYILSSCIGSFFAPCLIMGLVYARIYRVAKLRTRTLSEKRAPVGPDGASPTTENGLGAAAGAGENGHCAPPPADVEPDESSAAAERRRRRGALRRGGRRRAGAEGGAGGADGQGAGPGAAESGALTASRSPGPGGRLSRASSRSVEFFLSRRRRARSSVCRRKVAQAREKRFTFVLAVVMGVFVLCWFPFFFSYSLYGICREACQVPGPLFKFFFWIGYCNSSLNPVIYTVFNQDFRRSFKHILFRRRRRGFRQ

[8] = biological target: T2, 5-hydroxytryptamine receptor 1A (Homo sapiens) (UniProt P08908)
T2 sequence (whole entry): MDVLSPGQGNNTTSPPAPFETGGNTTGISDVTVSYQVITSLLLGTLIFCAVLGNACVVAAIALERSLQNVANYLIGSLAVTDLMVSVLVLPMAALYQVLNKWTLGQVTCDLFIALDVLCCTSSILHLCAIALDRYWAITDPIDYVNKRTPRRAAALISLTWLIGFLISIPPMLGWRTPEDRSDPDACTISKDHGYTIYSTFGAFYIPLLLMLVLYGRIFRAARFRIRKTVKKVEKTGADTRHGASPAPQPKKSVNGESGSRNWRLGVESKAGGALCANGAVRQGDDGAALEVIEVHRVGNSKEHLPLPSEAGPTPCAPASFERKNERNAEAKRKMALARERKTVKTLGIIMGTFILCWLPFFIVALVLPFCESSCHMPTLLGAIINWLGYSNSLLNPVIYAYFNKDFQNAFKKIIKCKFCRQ

[9] = biological target: Sodium-dependent noradrenaline transporter (Homo sapiens) (UniProt P23975)
[10] = biological target: Sigma intracellular receptor 2 (Homo sapiens) (UniProt Q5BJF2)
Sigma intracellular receptor 2 (Homo sapiens), sequence (Q5BJF2 whole entry): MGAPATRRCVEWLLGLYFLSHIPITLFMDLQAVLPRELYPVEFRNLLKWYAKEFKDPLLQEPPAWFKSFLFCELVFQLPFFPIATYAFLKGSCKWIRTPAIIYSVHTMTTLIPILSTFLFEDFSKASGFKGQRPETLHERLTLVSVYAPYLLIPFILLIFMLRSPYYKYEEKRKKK

[11] = biological target: Delta-type opioid receptor (Homo sapiens) (UniProt P41143)
Delta-type opioid receptor (Homo sapiens), sequence (P41143 whole entry): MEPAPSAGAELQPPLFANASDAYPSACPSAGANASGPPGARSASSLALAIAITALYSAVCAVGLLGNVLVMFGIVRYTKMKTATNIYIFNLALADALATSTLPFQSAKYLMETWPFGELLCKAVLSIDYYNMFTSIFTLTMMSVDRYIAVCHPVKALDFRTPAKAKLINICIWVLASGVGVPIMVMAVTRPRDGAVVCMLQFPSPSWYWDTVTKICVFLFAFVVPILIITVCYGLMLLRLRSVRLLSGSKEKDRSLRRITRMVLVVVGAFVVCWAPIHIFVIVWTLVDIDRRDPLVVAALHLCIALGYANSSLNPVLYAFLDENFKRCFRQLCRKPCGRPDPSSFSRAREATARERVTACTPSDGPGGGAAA

[12] = biological target: Histamine H4 receptor (Homo sapiens) (UniProt Q9H3N8)
Histamine H4 receptor (Homo sapiens), sequence (Q9H3N8 whole entry): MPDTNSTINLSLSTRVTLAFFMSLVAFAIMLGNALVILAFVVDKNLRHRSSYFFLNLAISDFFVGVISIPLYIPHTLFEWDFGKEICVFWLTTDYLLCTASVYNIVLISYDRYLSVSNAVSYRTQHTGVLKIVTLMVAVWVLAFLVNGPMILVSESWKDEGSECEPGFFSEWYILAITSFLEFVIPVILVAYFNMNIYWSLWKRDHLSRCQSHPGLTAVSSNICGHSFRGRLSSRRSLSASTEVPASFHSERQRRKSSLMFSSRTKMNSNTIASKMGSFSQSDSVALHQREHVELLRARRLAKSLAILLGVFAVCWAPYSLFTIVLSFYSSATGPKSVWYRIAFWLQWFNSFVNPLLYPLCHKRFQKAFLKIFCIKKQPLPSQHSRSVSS

[13] = biological target: D(1B) dopamine receptor (Homo sapiens) (UniProt P21918)
D(1B) dopamine receptor (Homo sapiens), sequence (P21918 whole entry): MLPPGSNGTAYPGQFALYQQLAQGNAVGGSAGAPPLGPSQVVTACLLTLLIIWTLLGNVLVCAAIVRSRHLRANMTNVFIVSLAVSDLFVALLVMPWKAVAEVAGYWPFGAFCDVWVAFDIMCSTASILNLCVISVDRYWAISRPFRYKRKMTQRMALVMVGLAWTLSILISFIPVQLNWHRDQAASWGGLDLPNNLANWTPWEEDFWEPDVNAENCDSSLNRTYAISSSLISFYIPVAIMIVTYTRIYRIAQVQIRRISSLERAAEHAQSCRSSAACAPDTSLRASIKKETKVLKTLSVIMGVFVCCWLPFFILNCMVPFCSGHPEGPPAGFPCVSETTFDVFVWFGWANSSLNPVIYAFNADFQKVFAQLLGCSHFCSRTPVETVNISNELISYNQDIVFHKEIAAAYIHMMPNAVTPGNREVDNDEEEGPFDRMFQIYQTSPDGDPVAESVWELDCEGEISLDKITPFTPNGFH

[14] = biological target: T3, Alpha-2B adrenergic receptor (Homo sapiens) (UniProt P18089)
T3 sequence (whole entry): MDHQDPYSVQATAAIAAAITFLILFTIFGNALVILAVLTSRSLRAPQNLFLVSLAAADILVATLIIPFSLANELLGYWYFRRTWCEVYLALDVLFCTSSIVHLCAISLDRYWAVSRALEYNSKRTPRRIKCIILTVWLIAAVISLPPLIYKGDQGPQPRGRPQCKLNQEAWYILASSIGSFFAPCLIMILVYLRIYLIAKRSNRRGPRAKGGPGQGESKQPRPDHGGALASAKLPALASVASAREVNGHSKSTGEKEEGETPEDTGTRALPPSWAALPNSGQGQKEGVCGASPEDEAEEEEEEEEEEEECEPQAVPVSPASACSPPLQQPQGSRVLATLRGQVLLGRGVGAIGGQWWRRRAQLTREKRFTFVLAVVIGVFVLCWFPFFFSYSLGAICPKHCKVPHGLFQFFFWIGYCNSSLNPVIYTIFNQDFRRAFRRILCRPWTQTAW

[15] = biological target: T4, D(4) dopamine receptor (Homo sapiens) (UniProt P21917)
T4 sequence (whole entry): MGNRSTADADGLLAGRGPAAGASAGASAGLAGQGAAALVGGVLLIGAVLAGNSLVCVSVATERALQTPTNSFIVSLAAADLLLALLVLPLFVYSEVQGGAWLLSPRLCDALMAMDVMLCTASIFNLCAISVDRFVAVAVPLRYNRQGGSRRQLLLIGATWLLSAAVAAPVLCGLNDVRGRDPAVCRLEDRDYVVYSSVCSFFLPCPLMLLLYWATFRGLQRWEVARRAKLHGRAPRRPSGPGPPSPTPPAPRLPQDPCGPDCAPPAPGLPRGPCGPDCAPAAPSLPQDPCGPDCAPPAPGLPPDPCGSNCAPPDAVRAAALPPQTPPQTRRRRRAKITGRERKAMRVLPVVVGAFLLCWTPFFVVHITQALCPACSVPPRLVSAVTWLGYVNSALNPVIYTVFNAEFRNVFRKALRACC

[16] = biological target: Muscarinic acetylcholine receptor M3 (Homo sapiens) (UniProt P20309)
Muscarinic acetylcholine receptor M3 (Homo sapiens), sequence (P20309 whole entry, looked up): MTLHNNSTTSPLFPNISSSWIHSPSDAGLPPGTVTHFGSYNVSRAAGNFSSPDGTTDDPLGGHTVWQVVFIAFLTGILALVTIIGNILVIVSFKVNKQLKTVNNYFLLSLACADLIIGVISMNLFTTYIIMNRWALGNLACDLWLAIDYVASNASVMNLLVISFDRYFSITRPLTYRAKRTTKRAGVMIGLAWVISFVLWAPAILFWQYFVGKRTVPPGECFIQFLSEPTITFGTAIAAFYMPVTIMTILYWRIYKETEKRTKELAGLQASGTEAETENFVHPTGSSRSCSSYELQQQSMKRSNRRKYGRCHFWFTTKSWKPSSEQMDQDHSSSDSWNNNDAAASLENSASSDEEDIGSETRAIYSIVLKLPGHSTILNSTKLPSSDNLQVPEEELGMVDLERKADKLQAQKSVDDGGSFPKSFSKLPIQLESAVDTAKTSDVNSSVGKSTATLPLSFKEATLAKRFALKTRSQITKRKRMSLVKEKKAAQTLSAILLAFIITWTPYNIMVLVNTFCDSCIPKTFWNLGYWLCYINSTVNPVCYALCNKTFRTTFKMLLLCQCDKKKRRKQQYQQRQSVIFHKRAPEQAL

[17] = biological target: Beta-1 adrenergic receptor (Homo sapiens) (UniProt P08588)
Beta-1 adrenergic receptor (Homo sapiens), sequence (P08588 whole entry, looked up): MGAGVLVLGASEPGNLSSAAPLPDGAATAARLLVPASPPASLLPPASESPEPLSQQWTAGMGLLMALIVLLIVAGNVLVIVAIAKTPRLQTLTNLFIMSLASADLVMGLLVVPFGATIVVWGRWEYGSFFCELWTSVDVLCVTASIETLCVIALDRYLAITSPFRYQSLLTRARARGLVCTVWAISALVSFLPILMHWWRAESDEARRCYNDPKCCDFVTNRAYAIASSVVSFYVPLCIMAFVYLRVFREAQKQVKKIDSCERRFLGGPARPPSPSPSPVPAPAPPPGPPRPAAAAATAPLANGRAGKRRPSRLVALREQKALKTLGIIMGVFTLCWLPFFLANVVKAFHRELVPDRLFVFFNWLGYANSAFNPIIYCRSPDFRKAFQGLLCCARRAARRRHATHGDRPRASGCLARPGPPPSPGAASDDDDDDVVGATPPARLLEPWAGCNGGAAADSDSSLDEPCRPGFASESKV

Measured: inhibition

Beta-3 adrenergic receptor (Homo sapiens), sequence (P13945 whole entry, looked up): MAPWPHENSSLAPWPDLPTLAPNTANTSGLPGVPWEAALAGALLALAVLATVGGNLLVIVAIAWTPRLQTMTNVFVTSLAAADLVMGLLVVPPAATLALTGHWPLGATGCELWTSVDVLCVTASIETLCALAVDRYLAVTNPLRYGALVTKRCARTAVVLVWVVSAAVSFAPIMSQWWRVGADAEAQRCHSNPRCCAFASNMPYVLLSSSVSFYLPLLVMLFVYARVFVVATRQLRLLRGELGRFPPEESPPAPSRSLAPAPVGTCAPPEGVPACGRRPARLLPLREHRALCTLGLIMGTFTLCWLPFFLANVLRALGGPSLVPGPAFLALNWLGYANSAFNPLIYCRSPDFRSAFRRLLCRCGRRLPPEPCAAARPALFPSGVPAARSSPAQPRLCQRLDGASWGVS
5-hydroxytryptamine receptor 1D (Homo sapiens), sequence (P28221 whole entry): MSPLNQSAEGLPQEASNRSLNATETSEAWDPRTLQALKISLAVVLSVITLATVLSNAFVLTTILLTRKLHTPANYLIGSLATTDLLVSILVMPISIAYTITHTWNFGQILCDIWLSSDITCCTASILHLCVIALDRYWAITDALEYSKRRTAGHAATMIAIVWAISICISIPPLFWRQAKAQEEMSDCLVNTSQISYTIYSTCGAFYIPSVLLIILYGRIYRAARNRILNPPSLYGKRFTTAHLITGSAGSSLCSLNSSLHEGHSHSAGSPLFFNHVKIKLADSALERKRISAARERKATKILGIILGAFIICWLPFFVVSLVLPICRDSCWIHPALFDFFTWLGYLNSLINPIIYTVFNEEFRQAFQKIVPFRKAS
Sigma non-opioid intracellular receptor 1 (Homo sapiens), sequence (Q99720 whole entry): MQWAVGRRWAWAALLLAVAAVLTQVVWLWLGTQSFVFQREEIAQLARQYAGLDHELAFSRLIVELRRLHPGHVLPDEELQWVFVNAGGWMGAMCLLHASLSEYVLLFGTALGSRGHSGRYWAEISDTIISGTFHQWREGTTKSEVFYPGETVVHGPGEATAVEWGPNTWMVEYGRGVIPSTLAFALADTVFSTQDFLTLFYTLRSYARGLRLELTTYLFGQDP
Translocator protein (Homo sapiens), sequence (P30536 whole entry): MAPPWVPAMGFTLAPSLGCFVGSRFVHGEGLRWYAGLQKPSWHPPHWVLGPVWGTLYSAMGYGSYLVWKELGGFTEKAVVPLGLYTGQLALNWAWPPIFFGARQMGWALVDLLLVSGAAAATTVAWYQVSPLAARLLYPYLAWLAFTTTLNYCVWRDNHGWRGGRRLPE

COc1ccnc(N2CCC3(CCCN(Cc4c[nH]c5ccccc45)C3=O)CC2)n1
inactive: [1] 16% | [2] -5.97% | [3] 13.2% | [5] 0.7% | [6] -4.13% | [7] 4.51% | [9] 16.6% | [10] 34.7% | [11] 41.8% | [12] -2.57% | [13] 20.4% | [14] -7.28%
active: [4] 75.8% | [8] 72.4%

Cc1c(C2=CCN(C(=O)N(C)C(C)C)CC2)nnn1-c1cccnc1F
inactive: [15] 26.9% | [1] 48.4% | [2] 14.8% | [4] -1.56% | [16] 1.95% | [5] -3.59% | [17] -5.97% | [7] 9.65% | [8] 17% | [12] 9.6% | [14] 21.3%
active: [10] 64.4%

Cc1nnn(-c2ccc(-c3ccc(C4(C(=O)O)CC4)cc3)cc2)c1NC(=O)O[C@H](C)c1ccccc1
inactive: [1] 20.9% | [2] 24.9% | [3] 16.8% | [4] 3.3% | [16] -2.63% | [5] -3.65% | [6] -4.64% | [17] -7.78% | [7] 2.71% | [8] 2.96% | [9] 2.8% | [10] -0.49% | [11] 7.05% | [12] -4.07% | [13] 43.6% | [14] 4.78%

Cc1csc(NC(=O)c2cc(F)cc(Oc3cncnc3)c2)n1
inactive: [15] 23.6% | [1] 37.2% | [3] 5.84% | [4] 37.4% | [16] -2.7% | [5] 2.1% | [6] -5.62% | [17] -2.16% | [7] 6.42% | [8] 20.4% | [9] 10.9% | [10] 41.8% | [11] -0.43% | [12] 0.79% | [13] 46% | [14] 6.73%

COC1CCN(c2cccc(-c3cc(NC(C)=O)nc(-n4nc(C)cc4C)n3)n2)CC1
active: [1] 80.2% | [4] 70.3%
inactive: [15] -2.89% | [2] 22.6% | [5] 1.55% | [6] -3.87% | [17] 41.4% | [7] 26.3% | [8] 23.3% | [10] 36.3% | [11] -6% | [12] 5.32% | [13] 3.58% | [14] -0.88%
